Measured values reported in patent US5502035A, “N-terminus modified analogs of LHRH” (Tap Holdings Inc., priority 1994, dated 1996).
Non-standard residues stand in square brackets, D forms with d. Residues, ends and D or L forms follow the SMILES beside them. *: point of attachment. Shikimoyl = O=C(C1=C[C@@H](O)[C@@H](O)[C@H](O)C1)*; Tetrahydrofuroyl(2R) = O=C([C@H]1CCCO1)*; dPhe(4-Cl) = N[C@H](Cc1ccc(Cl)cc1)C(=O)O; d2Nal = N[C@H](Cc1ccc2ccccc2c1)C(=O)O; Acetyl(3-pyridyl) = O=C(Cc1cccnc1)*; Lys(iPr) = CC(C)NCCCC[C@H](N)C(=O)O; NMeY = CN[C@@H](Cc1ccc(O)cc1)C(=O)O; Thiophene2carbonyl = O=C(c1cccs1)*; dCit = NC(=O)NCCC[C@@H](N)C(=O)O; d3Pal = N[C@H](Cc1cccnc1)C(=O)O; Isonicotinoyl = O=C(c1ccncc1)*; Nicotinoyl = O=C(c1cccnc1)*; Picolinoyl = O=C(c1ccccn1)*; X1 = O=C([C@@H]1CCCO1)*; X9 = O=C(c1ccc(O)nc1)*

Molecular target: T1, LHRH (Rattus norvegicus, UniProt P30969)
T1 construct: endogenous in cells; host or cells: rat pituitary cells (own knowledge of the cited Haviv 1989 method)
T1 sequence (P30969 1-327): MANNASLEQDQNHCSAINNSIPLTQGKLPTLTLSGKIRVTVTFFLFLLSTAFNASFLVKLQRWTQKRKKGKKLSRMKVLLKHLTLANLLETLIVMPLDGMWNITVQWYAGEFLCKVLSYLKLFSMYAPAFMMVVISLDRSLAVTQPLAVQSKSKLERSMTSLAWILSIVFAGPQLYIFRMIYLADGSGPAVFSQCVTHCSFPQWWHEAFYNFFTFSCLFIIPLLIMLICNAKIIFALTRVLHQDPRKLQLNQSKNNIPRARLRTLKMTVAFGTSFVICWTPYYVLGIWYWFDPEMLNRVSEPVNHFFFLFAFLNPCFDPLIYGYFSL
Assay: in vitro test for LHRH antagonist potency (pA2)
Format: cell-based
Conditions: negative logarithm of the antagonist concentration required to shift the response curve produced by the agonist leuprolide to two-fold higher concentration
Outline: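 Antagonism read against the agonist leuprolide on rat LHRH receptor; value is pA2, the −log of antagonist concentration that doubles the agonist concentration needed for the same response.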

How did the Kb turn out when CC(C)C[C@H](NC(=O)[C@@H](CCCCNC(=O)c1cccnc1)NC(=O)[C@H](Cc1ccc(O)cc1)N(C)C(=O)[C@H](CO)NC(=O)[C@@H](Cc1cccnc1)NC(=O)[C@@H](Cc1ccc(Cl)cc1)NC(=O)[C@@H](Cc1ccc2ccccc2c1)NC(=O)c1cccs1)C(=O)N[C@@H](CCCCNC(C)C)C(=O)N1CCC[C@H]1C(=O)N[C@H](C)C(N)=O [Example 72c, N-Thienyl-2-carbonyl-D2Nal-D4ClPhe-D3Pal-Ser-NMeTyr-DLys(Nic)-Leu-Lys(Isp)-Pro-DAlaNH2] (Thiophene2carbonyl-[d2Nal][dPhe(4-Cl)][d3Pal]S[NMeY][dK](Nicotinoyl)L[Lys(iPr)]P[dA]-NH2) was run?
Its Kb is 0.02 nM.

How did the Kb turn out when CC(C)C[C@H](NC(=O)[C@@H](CCCCNC(=O)c1cccnc1)NC(=O)[C@H](Cc1ccc(O)cc1)N(C)C(=O)[C@H](CO)NC(=O)[C@@H](Cc1cccnc1)NC(=O)[C@@H](Cc1ccc(Cl)cc1)NC(=O)[C@@H](Cc1ccc2ccccc2c1)NC(=O)c1cccnc1)C(=O)N[C@@H](CCCCNC(C)C)C(=O)N1CCC[C@H]1C(=O)N[C@H](C)C(N)=O [Example 72d, N-Nicotinyl-D2Nal-D4ClPhe-D3Pal-Ser-NMeTyr-DLys(Nic)-Leu-Lys(Isp)-Pro-DAlaNH2] (Nicotinoyl-[d2Nal][dPhe(4-Cl)][d3Pal]S[NMeY][dK](Nicotinoyl)L[Lys(iPr)]P[dA]-NH2) was run?
Its Kb is 0.00871 nM.

CC(C)C[C@H](NC(=O)[C@@H](CCCCNC(=O)c1cccnc1)NC(=O)[C@H](Cc1ccc(O)cc1)N(C)C(=O)[C@H](CO)NC(=O)[C@@H](Cc1cccnc1)NC(=O)[C@@H](Cc1ccc(Cl)cc1)NC(=O)[C@@H](Cc1ccc2ccccc2c1)NC(=O)c1ccccn1)C(=O)N[C@@H](CCCCNC(C)C)C(=O)N1CCC[C@H]1C(=O)N[C@H](C)C(N)=O [Example 72e, N-Picolinoyl-D2Nal-D4ClPhe-D3Pal-Ser-NMeTyr-DLys(Nic)-Leu-Lys(Isp)-Pro-DAlaNH2] (Picolinoyl-[d2Nal][dPhe(4-Cl)][d3Pal]S[NMeY][dK](Nicotinoyl)L[Lys(iPr)]P[dA]-NH2) was tested. Which Kb did it give?
Its Kb is 0.0141 nM.

How did the Kb turn out when CC(C)C[C@H](NC(=O)[C@@H](CCCCNC(=O)c1cccnc1)NC(=O)[C@H](Cc1ccc(O)cc1)N(C)C(=O)[C@H](CO)NC(=O)[C@@H](Cc1cccnc1)NC(=O)[C@@H](Cc1ccc(Cl)cc1)NC(=O)[C@@H](Cc1ccc2ccccc2c1)NC(=O)c1ccc(O)nc1)C(=O)N[C@@H](CCCCNC(C)C)C(=O)N1CCC[C@H]1C(=O)N[C@H](C)C(N)=O [Example 72f, N-(6-Hydroxy)nicotinyl-D2Nal-D4ClPhe-D3Pal-Ser-NMeTyr-DLys(Nic)-Leu-Lys(Isp)-Pro-DAlaNH2] (X9-[d2Nal][dPhe(4-Cl)][d3Pal]S[NMeY][dK](Nicotinoyl)L[Lys(iPr)]P[dA]-NH2) was run?
The Kb was 0.01 nM.

Which Kb does the source give for CC(C)C[C@H](NC(=O)[C@@H](CCCCNC(=O)c1cccnc1)NC(=O)[C@H](Cc1ccc(O)cc1)N(C)C(=O)[C@H](CO)NC(=O)[C@@H](Cc1cccnc1)NC(=O)[C@@H](Cc1ccc(Cl)cc1)NC(=O)[C@@H](Cc1ccc2ccccc2c1)NC(=O)c1ccncc1)C(=O)N[C@@H](CCCCNC(C)C)C(=O)N1CCC[C@H]1C(=O)N[C@H](C)C(N)=O [Example 72g, N-Isonicotinyl-D2Nal-D4ClPhe-D3Pal-Ser-NMeTyr-DLys(Nic)-Leu-Lys(Isp)-Pro-DAlaNH2] (Isonicotinoyl-[d2Nal][dPhe(4-Cl)][d3Pal]S[NMeY][dK](Nicotinoyl)L[Lys(iPr)]P[dA]-NH2) here?
The Kb was 0.02 nM.

CC(C)C[C@H](NC(=O)[C@@H](CCCCNC(=O)c1cccnc1)NC(=O)[C@H](Cc1ccc(O)cc1)N(C)C(=O)[C@H](CO)NC(=O)[C@@H](Cc1cccnc1)NC(=O)[C@@H](Cc1ccc(Cl)cc1)NC(=O)[C@@H](Cc1ccc2ccccc2c1)NC(=O)Cc1cccnc1)C(=O)N[C@@H](CCCCNC(C)C)C(=O)N1CCC[C@H]1C(=O)N[C@H](C)C(N)=O [Example 72h, N-(3-Pyridylacetyl)-D2Nal-D4ClPhe-D3Pal-Ser-NMeTyr-DLys(Nic)-Leu-Lys(Isp)- Pro-DAlaNH2] ({Acetyl(3-pyridyl)}-[d2Nal][dPhe(4-Cl)][d3Pal]S[NMeY][dK](Nicotinoyl)L[Lys(iPr)]P[dA]-NH2) was tested. Which Kb did it give?
Its Kb is 0.00631 nM.

Which Kb does the source give for CC(C)C[C@H](NC(=O)[C@@H](CCCCNC(=O)c1cccnc1)NC(=O)[C@H](CCCCNC(=O)c1cccnc1)NC(=O)[C@H](CO)NC(=O)[C@@H](Cc1cccnc1)NC(=O)[C@@H](Cc1ccc(Cl)cc1)NC(=O)[C@@H](Cc1ccc2ccccc2c1)NC(=O)C1=C[C@@H](O)[C@@H](O)[C@H](O)C1)C(=O)N[C@@H](CCCCNC(C)C)C(=O)N1CCC[C@H]1C(=O)N[C@H](C)C(N)=O [Example 73, N-Shikimyl-D2Nal-D4ClPhe-D3Pal-Ser-Lys(Nic)-DLys(Nic)-Leu-Lys(Isp)-Pro-DAlaNH2] (Shikimoyl-[d2Nal][dPhe(4-Cl)][d3Pal]SK(Nicotinoyl)[dK](Nicotinoyl)L[Lys(iPr)]P[dA]-NH2) here?
Its Kb is 0.0447 nM.

With CC(C)C[C@H](NC(=O)[C@@H](CCCCNC(=O)c1cccnc1)NC(=O)[C@H](CCCCNC(=O)c1cccnc1)NC(=O)[C@H](CO)NC(=O)[C@@H](Cc1cccnc1)NC(=O)[C@@H](Cc1ccc(Cl)cc1)NC(=O)[C@@H](Cc1ccc2ccccc2c1)NC(=O)c1cccnc1)C(=O)N[C@@H](CCCCNC(C)C)C(=O)N1CCC[C@H]1C(=O)N[C@H](C)C(N)=O [Example 74, N-Nicotinyl-D2Nal-D4ClPhe-D3Pal-Ser-Lys(Nic)-DLys(Nic)-Leu-Lys(Isp)-Pro-DAlaNH2] (Nicotinoyl-[d2Nal][dPhe(4-Cl)][d3Pal]SK(Nicotinoyl)[dK](Nicotinoyl)L[Lys(iPr)]P[dA]-NH2) as the compound, how does the Kb read?
The Kb was 0.0562 nM.

For CC(C)C[C@H](NC(=O)[C@@H](CCCCNC(=O)c1cccnc1)NC(=O)[C@H](Cc1ccc(O)cc1)NC(=O)[C@H](CO)NC(=O)[C@@H](Cc1cccnc1)NC(=O)[C@@H](Cc1ccc(Cl)cc1)NC(=O)[C@@H](Cc1ccc2ccccc2c1)NC(=O)C1=C[C@@H](O)[C@@H](O)[C@H](O)C1)C(=O)N[C@@H](CCCCNC(C)C)C(=O)N1CCC[C@H]1C(=O)N[C@H](C)C(N)=O [Example 75, N-Shikimyl-D2Nal-D4ClPhe-D3Pal-Ser-Tyr-DLys(Nic)-Leu-Lys(Isp)-Pro-DAlaNH2] (Shikimoyl-[d2Nal][dPhe(4-Cl)][d3Pal]SY[dK](Nicotinoyl)L[Lys(iPr)]P[dA]-NH2), which Kb is on record?
Its Kb is 0.0112 nM.

Which Kb does the source give for CC(C)C[C@H](NC(=O)[C@@H](CCCNC(N)=O)NC(=O)[C@H](Cc1ccc(O)cc1)N(C)C(=O)[C@H](CO)NC(=O)[C@@H](Cc1cccnc1)NC(=O)[C@@H](Cc1ccc(Cl)cc1)NC(=O)[C@@H](Cc1ccc2ccccc2c1)NC(=O)[C@@H]1CCCO1)C(=O)N[C@@H](CCCNC(=N)N)C(=O)N1CCC[C@H]1C(=O)N[C@H](C)C(N)=O [Example 76, N-(S)-Tetrahydofur-2-oyl-D2Nal-D4ClPhe-D3Pal-Ser-NMeTyr-DCit-Leu-Arg-Pro-DAlaNH2] (X1-[d2Nal][dPhe(4-Cl)][d3Pal]S[NMeY][dCit]LRP[dA]-NH2) here?
The Kb was 0.0355 nM.

How did the Kb turn out when CC(C)C[C@H](NC(=O)[C@@H](CCCNC(N)=O)NC(=O)[C@H](Cc1ccc(O)cc1)N(C)C(=O)[C@H](CO)NC(=O)[C@@H](Cc1cccnc1)NC(=O)[C@@H](Cc1ccc(Cl)cc1)NC(=O)[C@@H](Cc1ccc2ccccc2c1)NC(=O)[C@H]1CCCO1)C(=O)N[C@@H](CCCNC(=N)N)C(=O)N1CCC[C@H]1C(=O)N[C@H](C)C(N)=O [Example 77, N-(R)-Tetrahydofur-2-oyl-D2Nal-D4ClPhe-D3Pal-Ser-NMeTyr-DCit-Leu-Arg-Pro-DAlaNH2] ({Tetrahydrofuroyl(2R)}-[d2Nal][dPhe(4-Cl)][d3Pal]S[NMeY][dCit]LRP[dA]-NH2) was run?
The Kb was 0.0141 nM.
